Earlier results as cited in patent US20080051459A1, “LONG TERM 24-HOUR INTESTINAL ADMINISTRATION OF LEVODOPA/CARBIDOPA” (Solvay Pharmaceuticals GmbH, priority 2006, published 2008).

System: patient
Conditions: one patient; from 86 to 100 mg/hour in about 5 weeks

N[C@@H](Cc1ccc(O)c(O)c1)C(=O)O [levodopa]
Increase in administration rate (dose requirement): 16%
